# Measured values as given in patent US20030108512A1, “Modified prostaglandin compounds and analogs thereof, compositions containing the same useful for the treatment of cancer” (priority 2001, published 2003).
# pIC50: −log10 of the molar value.
# Experiments:
# [1] = system: human amelanotic melanoma cell line (LOX); assay: Collagen degradation inhibition assay (fluorescent-labelled Type I collagen matrix seeded with tumor cells); format: cell-based; details: n=4, FIGS. 2-4; for pIC50: LOX cells on labelled Type I collagen film; for dosage at which collagen degradation activity by LOX cells was inhibited: dosages tested about 10^−6 to 10^3 μM
# Description: The assay for screening antimetastatic agents is comprised of a collagenous matrix comprising collagenous components including but not limited to Type I or Type VI collagen or denatured collagen such as gelatin to form a scaffold-matrix. The scaffold matrix is subsequently coated with blood-borne components such as fibronectin, laminin, and fibrin for inducing adherence of the tumor cells and thereafter, labeled with quench fluorescent dyes. During performance of the assay, tumor cells that are present, adhere, ingest and invade the labeled scaffold-matrix resulting in the release of highly fluorescent peptides. Generally, tumor cells include a specific cell structure typically comprised of tentacles or arms (i.e. invadopodia) which secrete specific digestive enzymes including seprase, dipeptidyl peptidase IV (DPPIV), membrane Type-1 matrix metalloproteinases, and the like, to breakdown the collagen matrix. The fluorescence becomes visible only in the presence of these specific digestive enzymes produced by the tumor cells and increases in proportion to the activity of the digestive enzymes, thus providing a qualitative/quantitative measure of the invasiveness of the tumor cells. Other labeling methods including, but not limited to the use of, biotin, color dyes, and radioactive probes may also be used. As described herein, the assay utilizes a thin coating of collagen labeled with a fluorescent dye probe to form a scaffold collagen matrix, and tumor cells. The scaffold collagen matrix simulates the extracellular environment that is attacked by tumor cells during metastasis. The tumor cells attack the matrix by secreting proteolytic enzymes that break the collagen into peptide fragments. The peptide fragments release the fluorescent dye probe, and fluorescent light is emitted. The observed light intensity of the fluorescence correlates proportionally with the collagen degradation activity of the tumor cells. The tumor cells used in the test samples were generated from a human amelanotic melanoma cell line (LOX). A solution of a Type I collagen was prepared at a concentration of about 3.56 mg/ml. The collagen solution was used to form a coating of a monolayer of Type I collagen on a 96-well microtiter plate. […] Fluorescence readings were made using a microtiter plate fluorescence reader set at 485 nm/538 nm (Ex/Em). […] The collagen degradation activity of the LOX cells was detected through the cleavage and release of fluorescent collagen peptides from the labeled collagen matrix film as described above. A positive fluorescence signal, ΔF indicates the presence of collagen degradation activity. […]
# LOX cells = assay: Apoptosis assay (Vybrant Apoptosis Assay Kit #4, YO-PRO); format: cell-based, human; details: overnight, n=4, FIGS. 9-11
# Method: An apoptosis assay marketed as Vybrant Apoptosis Assay Kit #4 from Molecular Probes, Inc., was obtained for the test.
# The LOX cell cultures were incubated overnight.
# The apoptosis assay was performed four times (n=4) for each test compound.
SMILES,pIC50 ([1]; Homo sapiens),dosage at which collagen degradation activity by LOX cells was inhibited [1],dosages giving a marked increase in the incidence of apoptosis (LOX cells),pIC50 [1],dosages causing LOX cells to enter apoptosis (LOX cells)
"CCCCCC(O)CC[C@@H]1C2Cc3cccc(OCC(=O)O)c3CC2C[C@H]1O (stereo partly drawn) [Compound V, reference compound]",8.00,about 2.5×10^−3 μM,over 100 μM,–,–
"CNC(=O)[C@H](Cc1ccccc1)NC(=O)[C@H](CC(C)C)[C@H](CSc1cccs1)C(=O)NO [MMP inhibitor, BATIMASTAT®, reference compound]",–,over 10^−4 μM,–,9.70,over 2 μM
